In patent US20250051357A1, “SOLID FORMS OF A GPR119 AGONIST AND PROCESSES FOR THE PREPARATION THEREOF” (MANKIND PHARMA LTD., priority 2023, published 2025):
Values joined by “and” are separate entries in the source; they are usually repeats but may differ in a detail not shown here. Identical values can stand only once.

Assay: Particle size analysis, Malvern particle size analyzer (Mastersizer 3000)
Type: physicochemical
Details: particle size distribution d90 of the isolated batch; dispersant water, Tween-80 paste, Mie model
Experimental: Particle size analysis was performed using a Malvern particle size analyzer. (Mastersizer 3000, Malvern Instrument Ltd).
Weigh accurately 100 mg of sample in 100 ml beaker. Add 3 drops of Tween-80 and 1 mL of water and make a paste with the help of glass rod. Then add 10 ml water and sonicate externally for 10 seconds with continued shaking.

PSD (d90) | Compound
84.9 μm and 62.4 μm and 106 μm | CCc1cnc(N2CCC([C@H](C)Oc3nn4cc(-c5ccc(S(C)(=O)=O)cc5F)nc4s3)CC2)nc1 [Form M-1, 2-((S)-1-(1-(5-ethyl-pyrimidin-2-yl)piperidin-4-yl)ethoxy)-6-(2-fluoro-4-(methylsulfonyl)phenyl) imidazo[2,1-b][1,3,4]thiadiazole]
99.8 μm | CCc1cnc(N2CCC([C@H](C)Oc3nn4cc(-c5ccc(S(C)(=O)=O)cc5F)nc4s3)CC2)nc1 [Form M-2, 2-((S)-1-(1-(5-ethyl-pyrimidin-2-yl)piperidin-4-yl)ethoxy)-6-(2-fluoro-4-(methylsulfonyl)phenyl) imidazo[2,1-b][1,3,4]thiadiazole]
30-60 μm | CCc1cnc(N2CCC([C@H](C)Oc3nn4cc(-c5ccc(S(C)(=O)=O)cc5F)nc4s3)CC2)nc1 [Form M-4, 2-((S)-1-(1-(5-ethyl-pyrimidin-2-yl)piperidin-4-yl)ethoxy)-6-(2-fluoro-4-(methylsulfonyl)phenyl) imidazo[2,1-b][1,3,4]thiadiazole]
50-80 μm | CCc1cnc(N2CCC([C@H](C)Oc3nn4cc(-c5ccc(S(C)(=O)=O)cc5F)nc4s3)CC2)nc1 [amorphous Form, 2-((S)-1-(1-(5-ethyl-pyrimidin-2-yl)piperidin-4-yl)ethoxy)-6-(2-fluoro-4-(methylsulfonyl)phenyl) imidazo[2,1-b][1,3,4]thiadiazole]
